Legend:
A549 cells = test: Inhibition of inflammatory cytokine gene expression induced by IL-1β, RT-PCR, A549 cells; assay type: cell-based, human; settings: IL-1β 2 ng/ml, peptide 10, 50, 100, 500 μM, 3 hours, RT-PCR (FIG. 8)
Procedure: A549 cells (human alveolar basal epithelial cells) were seeded at 3×10^5 cells/well in a 6-well plate and used in the experiment. After culturing for 1 day with a culture medium containing 10% FBS, the culture medium was replaced with a culture medium without containing FBS to induce starvation for 4 hours. A normal group without being treated with any substances, a group treated with IL-1β (2 ng/ml) (negative control group), groups treated with IL-1β (2 ng/ml) and the peptide of Production Example 1 (10, 50, 100, 500 μM), and a group treated with IL-1β (2 ng/ml) and 10 μM of Dexamethasone (DEX) (positive control group) were treated with the above-described active substances and drugs respectively, and then RNA was extracted after 3 hours to carry out RT-PCR. RNA was extracted from the A549 cells in each of the above groups using an easy-BLUE™ Total RNA extraction kit (Qiagen, Germany). The extracted RNA was converted into cDNA with RT-PCR premix (iNtRON Biotechnology, Seongnam, Korea). After preparing a reaction mixture with PCR premix (iNtRON Biotechnology, Seongnam, Korea) and primers for each gene, PCR was carried out using a PCR machine (Eppendorf, Germany). Next, the mRNA expression pattern was determined by agarose gel electrophoresis. The base sequences of the primers used in the experiment are as shown in [Table 2].

MRC-5 cells = test: ELISA of LPS-induced IL-6 and IL-8, MRC-5 cells; assay type: cell-based; settings: 5 μg/ml LPS, peptide 10, 50, 100, 500 μM, 72 hours, culture supernatant (FIG. 5a, 5b)
Procedure: MRC-5 cells (lung fibroblast cells) were seeded at 2×10^5 cells/well in a 12-well plate and used in the experiment. After culturing for 1 day with a culture medium containing 10% FBS, the culture medium was replaced with a culture medium without containing FBS to induce starvation for 4 hours. Cells of a normal group without being treated with any substances, a group treated with 5 μg/ml of LPS (Sigma Aldrich) (negative control group), groups treated with 5 μg/ml of LPS and the peptide of Production Example 1 (10, 50, 100, 500 μM), and a group treated with 5 μg/ml of LPS and 10μM of Dexamethasone (DEX) (positive control group) were treated with active substances and drugs respectively and then cultured for 72 hours. After cell culture, the supernatant obtained by centrifuging the culture solution at 4° C. and 3,000 rpm for 10 minutes was subjected to ELISA analysis using an IL-6 Quantikine ELISA Kit (R&D systems) and an IL-8 Quantikine ELISA kit (R&D systems) according to the method of use in the kit instructions, and then the absorbance was measured at 450 nm using a microplate reader.

Sequence: KYLLVHRPYYRR [peptide of Production Example 1]
- gene expression level of COX-2 (A549 cells): decreases in a concentration-dependent manner
- gene expression level of IL-1β (A549 cells): decreases in a concentration-dependent manner
- gene expression level of IL-6 (A549 cells): decreases in a concentration-dependent manner
- gene expression level of IL-8 (A549 cells): decreases in a concentration-dependent manner
- gene expression level of TNF-α (A549 cells): decreases in a concentration-dependent manner
- expression level of IL-6 (ELISA) (MRC-5 cells): decreased the expression levels of IL-6 and IL-8 in a concentration-dependent manner
- expression level of IL-8 (ELISA) (MRC-5 cells): decreased the expression levels of IL-6 and IL-8 in a concentration-dependent manner

Source: patent publication US20250213649A1, “PEPTIDE HAVING ANTI-INFLAMMATORY AND ANTI-FIBROTIC ACTIVITIES AND USE THEREOF” (CAREGEN CO., LTD., priority 2022, published 2025)
